What was measured:
Type in all cases: biochemical
[1] = biological target: T1, JAK2 (catalytic domain, His-tag) (Homo sapiens, UniProt O60674); assay: JAK kinase assay (HTRF, phosphorylation of TK substrate-biotin), JAK2; conditions: HTRF assay, ATP at Km (4 μM); read-out: JAK2 kinase inhibitory activity (EC50 indicator)
T1 construct: All four purified enzymes contain only the catalytic domain; His (N); purchased Carna Biosciences, Inc; host or cells: baculovirus expression system
Procedure, shortened: (§1)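 Compound was mixed with TK substrate-biotin (1 μM final), then kinase plus ATP at its Km was added and left 20-30 min at room temperature. Detection mix with EDTA, Streptavidin-XL665 and STK Ab Cryptate stopped the reaction; after overnight dark incubation, HTRF was read and EC50 derived.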

[2] = biological target: T2, JAK1 (aa 850-1154, catalytic domain, GST-tag) (Homo sapiens, UniProt P23458); assay: JAK kinase assay (HTRF, phosphorylation of TK substrate-biotin), JAK1; conditions: HTRF assay, ATP at Km (7 μM); read-out: JAK1 kinase inhibitory activity (EC50 indicator)
T2 construct: JAK1 (aa 850-1154) and TYK2 (aa 871-1187) are expressed with an N-terminally fused GST-tag; GST (N); purchased Carna Biosciences, Inc; host or cells: baculovirus expression system
T2 sequence (P23458 850-1154): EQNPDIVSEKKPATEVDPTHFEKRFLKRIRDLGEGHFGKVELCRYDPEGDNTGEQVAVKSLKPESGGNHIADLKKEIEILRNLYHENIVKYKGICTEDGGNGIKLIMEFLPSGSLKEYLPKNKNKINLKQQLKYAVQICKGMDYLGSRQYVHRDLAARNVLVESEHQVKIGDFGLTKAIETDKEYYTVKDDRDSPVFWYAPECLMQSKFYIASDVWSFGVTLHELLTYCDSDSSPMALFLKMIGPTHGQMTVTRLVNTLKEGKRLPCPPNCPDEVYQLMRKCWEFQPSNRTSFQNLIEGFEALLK
Procedure, shortened: as §1

[3] = biological target: T3, TYK2 (aa 871-1187, catalytic domain, GST-tag) (Homo sapiens, UniProt P29597); assay: JAK kinase assay (HTRF, phosphorylation of TK substrate-biotin), TYK2; conditions: HTRF assay, ATP at Km (13 μM); read-out: TYK2 kinase inhibitory activity (EC50 indicator)
T3 construct: JAK1 (aa 850-1154) and TYK2 (aa 871-1187) are expressed with an N-terminally fused GST-tag; GST (N); purchased Carna Biosciences, Inc; host or cells: baculovirus expression system
T3 sequence (P29597 871-1187): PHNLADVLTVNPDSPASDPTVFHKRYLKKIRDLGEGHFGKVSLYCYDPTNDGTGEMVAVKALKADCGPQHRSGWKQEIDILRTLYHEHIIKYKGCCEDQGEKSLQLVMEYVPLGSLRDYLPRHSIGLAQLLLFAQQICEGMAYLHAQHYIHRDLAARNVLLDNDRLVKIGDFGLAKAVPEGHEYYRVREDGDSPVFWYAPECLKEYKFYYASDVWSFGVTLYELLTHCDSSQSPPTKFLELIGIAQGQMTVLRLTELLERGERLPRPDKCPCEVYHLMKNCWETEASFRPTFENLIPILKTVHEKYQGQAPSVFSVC
Procedure, shortened: as §1

[4] = biological target: T4, JAK3 (catalytic domain, His-tag) (Homo sapiens, UniProt P52333); assay: JAK kinase assay (HTRF, phosphorylation of TK substrate-biotin), JAK3; conditions: HTRF assay, ATP at Km (2 μM); read-out: JAK3 kinase inhibitory activity (EC50 indicator)
T4 construct: All four purified enzymes contain only the catalytic domain; His (N); purchased Carna Biosciences, Inc; host or cells: baculovirus expression system
T4 sequence (P52333 822-1111 limits assumed): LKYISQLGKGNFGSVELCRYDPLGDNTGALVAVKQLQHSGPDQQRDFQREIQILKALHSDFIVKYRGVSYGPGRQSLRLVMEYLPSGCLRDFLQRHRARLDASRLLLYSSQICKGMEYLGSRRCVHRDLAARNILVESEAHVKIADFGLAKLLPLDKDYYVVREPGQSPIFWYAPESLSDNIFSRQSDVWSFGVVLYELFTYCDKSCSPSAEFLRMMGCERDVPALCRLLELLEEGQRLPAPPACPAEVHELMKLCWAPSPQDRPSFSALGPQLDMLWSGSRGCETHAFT
Procedure, shortened: as §1

T1 sequence (O60674 849-1124 limits assumed): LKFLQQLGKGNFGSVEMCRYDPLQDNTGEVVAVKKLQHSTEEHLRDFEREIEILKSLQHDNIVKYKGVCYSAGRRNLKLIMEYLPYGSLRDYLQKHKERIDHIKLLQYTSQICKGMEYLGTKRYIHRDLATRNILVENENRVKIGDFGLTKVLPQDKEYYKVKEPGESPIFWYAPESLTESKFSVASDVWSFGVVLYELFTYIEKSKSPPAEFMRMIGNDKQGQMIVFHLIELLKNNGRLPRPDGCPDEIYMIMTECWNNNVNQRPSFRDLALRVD

EC50 [1]	EC50 [2]	EC50 [3]	EC50 [4]	Structure (SMILES)
> 500 nM	> 500 nM	> 500 nM	> 500 nM	Cc1c[nH]c2ncnc(N3CCN(C(=O)Cc4cccc(CC#N)c4)C4(CC4)C3)c12 [Example 327, (3-{2-[7-(5-Methyl-7H-pyrrolo[2,3-d]pyrimidin-4-yl)-4,7-diaza-spiro[2.5]oct-4-yl]-2-oxo-ethyl}-phenyl)-acetonitrile]
> 500 nM	> 500 nM	> 500 nM	100 to 500 nM	Cc1c[nH]c2ncnc(N3CCN(C(=O)Cc4ccc(CC#N)cc4)C4(CC4)C3)c12 [Example 328, (4-{2-[7-(5-Methyl-7H-pyrrolo[2,3-d]pyrimidin-4-yl)-4,7-diaza-spiro[2.5]oct-4-yl]-2-oxo-ethyl}-phenyl)-acetonitrile]
> 500 nM	> 500 nM	> 500 nM	> 500 nM	Cc1c[nH]c2ncnc(N3CCN(C(=O)C4(C#N)CC4)C4(CC4)C3)c12 [Example 329, 1-[7-(5-Methyl-7H-pyrrolo[2,3-d]pyrimidin-4-yl)-4,7-diaza-spiro[2.5]octane-4-carbonyl]-cyclopropanecarbonitrile]
100 to 500 nM	100 to 500 nM	> 500 nM	100 to 500 nM	Cc1c[nH]c2ncnc(N3CCN(C(=O)Cc4ccc(F)cc4)C4(CC4)C3)c12 [Example 330, 2-(4-Fluoro-phenyl)-1-[7-(5-methyl-7H-pyrrolo[2,3-d]pyrimidin-4-yl)-4,7-diaza-spiro[2.5]oct-4-yl]-ethanone]
100 to 500 nM	100 to 500 nM	> 500 nM	< 100 nM	Cc1c[nH]c2ncnc(N3CCN(C(=O)Cc4ccc(C(F)(F)F)cc4)C4(CC4)C3)c12 [Example 331, 1-[7-(5-Methyl-7H-pyrrolo[2,3-d]pyrimidin-4-yl)-4,7-diaza-spiro[2.5]oct-4-yl]-2-(4-trifluoromethyl-phenyl)-ethanone]
> 500 nM	> 500 nM	> 500 nM	> 500 nM	Cc1c[nH]c2ncnc(N3CCN(C(=O)CCCC#N)C4(CC4)C3)c12 [Example 332, 5-[7-(5-Methyl-7H-pyrrolo[2,3-d]pyrimidin-4-yl)-4,7-diaza-spiro[2.5]oct-4-yl]-5-oxo-pentanenitrile]
> 500 nM	> 500 nM	> 500 nM	> 500 nM	Cc1c[nH]c2ncnc(N3CCN(C(=O)Cc4cccc(C#N)c4)C4(CC4)C3)c12 [Example 333, 3-{2-[7-(5-Methyl-7H-pyrrolo[2,3-d]pyrimidin-4-yl)-4,7-diaza-spiro[2.5]oct-4-yl]-2-oxo-ethyl}-benzonitrile]
< 100 nM	100 to 500 nM	> 500 nM	< 100 nM	Cc1c[nH]c2ncnc(N3CCN(C(=O)Cc4ccc(C#N)cc4)C4(CC4)C3)c12 [Example 334, 4-{2-[7-(5-Methyl-7H-pyrrolo[2,3-d]pyrimidin-4-yl)-4,7-diaza-spiro[2.5]oct-4-yl]-2-oxo-ethyl}-benzonitrile]
> 500 nM	> 500 nM	> 500 nM	> 500 nM	Cc1c[nH]c2ncnc(N3CCN(C(=O)CCC#N)C4(CC4)C3)c12 [Example 335, 4-[7-(5-Methyl-7H-pyrrolo[2,3-d]pyrimidin-4-yl)-4,7-diaza-spiro[2.5]oct-4-yl]-4-oxo-butyronitrile]
> 500 nM	> 500 nM	> 500 nM	> 500 nM	COC(=O)c1cc2c(N3CCN(C(=O)C4(C#N)CC4)C4(CC4)C3)ncnc2[nH]1 [Example 336, 4-[4-(1-Cyano-cyclopropanecarbonyl)-4,7-diaza-spiro[2.5]oct-7-yl]-7H-pyrrolo[2,3-d]pyrimidine-6-carboxylic acid methyl ester]
> 500 nM	> 500 nM	> 500 nM	> 500 nM	COC(=O)c1cc2c(N3CCN(C(=O)Cc4ccc(F)cc4)C4(CC4)C3)ncnc2[nH]1 [Example 337, 4-{4-[2-(4-Fluoro-phenyl)-acetyl]-4,7-diaza-spiro[2.5]oct-7-yl}-7H-pyrrolo[2,3-d]pyrimidine-6-carboxylic acid methyl ester]
> 500 nM	> 500 nM	> 500 nM	> 500 nM	COC(=O)c1cc2c(N3CCN(C(=O)Cc4ccc(C(F)(F)F)cc4)C4(CC4)C3)ncnc2[nH]1 [Example 338, 4-{4-[2-(4-Trifluoromethyl-phenyl)-acetyl]-4,7-diaza-spiro[2.5]oct-7-yl}-7H-pyrrolo[2,3-d]pyrimidine-6-carboxylic acid methyl ester]
> 500 nM	> 500 nM	> 500 nM	> 500 nM	COC(=O)c1cc2c(N3CCN(C(=O)CCCC#N)C4(CC4)C3)ncnc2[nH]1 [Example 339, 4-[4-(4-Cyano-butyryl)-4,7-diaza-spiro[2.5]oct-7-yl]-7H-pyrrolo[2,3-d]pyrimidine-6-carboxylic acid methyl ester]
> 500 nM	> 500 nM	> 500 nM	> 500 nM	COC(=O)c1cc2c(N3CCN(C(=O)CCC#N)C4(CC4)C3)ncnc2[nH]1 [Example 340]
< 100 nM	< 100 nM	100 to 500 nM	< 100 nM	O=C(c1ccc2[nH]ccc2c1)N1[C@@H]2CC[C@H]1CN(c1ncnc3[nH]ccc13)C2 [Example 341, (1H-Indol-5-yl)-[3-(7H-pyrrolo[2,3-d]pyrimidin-4-yl)-3,8-diaza-bicyclo[3.2.1]oct-8-yl]-methanone]
< 100 nM	< 100 nM	> 500 nM	100 to 500 nM	N#CCOc1ccc(C(=O)N2[C@@H]3CC[C@@H]2CN(c2ncnc4[nH]ccc24)C3)cc1 [Example 342, {4-[3-(7H-Pyrrolo[2,3-d]pyrimidin-4-yl)-3,8-diaza-bicyclo[3.2.1]octane-8-carbonyl]-phenoxy}-acetonitrile]
< 100 nM	< 100 nM	> 500 nM	100 to 500 nM	N#CCOc1cccc(C(=O)N2[C@@H]3CC[C@@H]2CN(c2ncnc4[nH]ccc24)C3)c1 [Example 343, {3-[3-(7H-Pyrrolo[2,3-d]pyrimidin-4-yl)-3,8-diaza-bicyclo[3.2.1]octane-8-carbonyl]-phenoxy}-acetonitrile]
< 100 nM	100 to 500 nM	100 to 500 nM	< 100 nM	O=C(c1cccc2[nH]ccc12)N1[C@@H]2CC[C@H]1CN(c1ncnc3[nH]ccc13)C2 [Example 344, (1H-Indol-4-yl)-[3-(7H-pyrrolo[2,3-d]pyrimidin-4-yl)-3,8-diaza-bicyclo[3.2.1]oct-8-yl]-methanone]
< 100 nM	< 100 nM	> 500 nM	100 to 500 nM	O=C(c1cnc2ccccc2n1)N1[C@@H]2CC[C@H]1CN(c1ncnc3[nH]ccc13)C2 [Example 345, [3-(7H-Pyrrolo[2,3-d]pyrimidin-4-yl)-3,8-diaza-bicyclo[3.2.1]oct-8-yl]-quinoxalin-2-yl-methanone]
100 to 500 nM	100 to 500 nM	> 500 nM	> 500 nM	N#CCc1cccc(CC(=O)N2[C@@H]3CC[C@@H]2CN(c2ncnc4[nH]ccc24)C3)c1 [Example 346, (3-{2-Oxo-2-[3-(7H-pyrrolo[2,3-d]pyrimidin-4-yl)-3,8-diaza-bicyclo[3.2.1]oct-8-yl]-ethyl}-phenyl)-acetonitrile]
100 to 500 nM	100 to 500 nM	> 500 nM	> 500 nM	N#CCc1ccc(CC(=O)N2[C@@H]3CC[C@@H]2CN(c2ncnc4[nH]ccc24)C3)cc1 [Example 347, (4-{2-Oxo-2-[3-(7H-pyrrolo[2,3-d]pyrimidin-4-yl)-3,8-diaza-bicyclo[3.2.1]oct-8-yl]-ethyl}-phenyl)-acetonitrile]
< 100 nM	< 100 nM	> 500 nM	< 100 nM	O=C(c1cc2ccccc2[nH]1)N1[C@@H]2CC[C@H]1CN(c1ncnc3[nH]ccc13)C2 [Example 348, (1H-Indol-2-yl)-[3-(7H-pyrrolo[2,3-d]pyrimidin-4-yl)-3,8-diaza-bicyclo[3.2.1]oct-8-yl]-methanone]
100 to 500 nM	100 to 500 nM	> 500 nM	100 to 500 nM	O=C(Cc1ccc(C(F)(F)F)cc1)N1[C@@H]2CC[C@@H]1CN(c1ncnc3[nH]ccc13)C2 [Example 349, 1-[3-(7H-Pyrrolo[2,3-d]pyrimidin-4-yl)-3,8-diaza-bicyclo[3.2.1]oct-8-yl]-2-(4-trifluoromethyl-phenyl)-ethanone]

— patent publication US9346809B2 (LEO PHARMA A/S, priority 2009, dated 2016)
